Source: PMC3397457, “Preclinical Evaluation of Anticancer Efficacy and Pharmacological Properties of FBA-TPQ, a Novel Synthetic Makaluvamine Analog” (Marine Drugs, 2012)

Experiments:
[1] = tested on: HPAC cells; assay: Annexin V apoptosis assay/flow cytometry, HPAC; type: cell-based, human; settings: 1 µM, 48 h
Experimental: (§1) The apoptotic cells were detected using a method reported previously. […] In HPAC cells, a 1 µM concentration of FBA-TPQ increased the apoptotic index two-fold higher than that seen in control cells (P < 0.01). […] In the Mia PaCa-2 cells, FBA-TPQ at 1 µM led to a three-fold increase in apoptosis (P < 0.01).
(§2) Following a similar protocol as above, cells in early and late stages of apoptosis were detected using an Annexin V-FITC apoptosis detection kit from BioVision (Mountain View, CA, USA), according to the manufacturer’s protocol. For apoptosis experiments, 2–3 × 10^5 cells were exposed to the test compound (0, 0.1, 0.5 and 1.0 µM) and incubated for 48 h prior to analysis. Cells were collected and washed with serum-free media. Cells were then re-suspended in 500 µL of Annexin V binding buffer followed by addition of 5 µL of Annexin V-FITC and 5 µL of propidium iodide (PI). The samples were incubated in the dark for 5 min at room temperature and analyzed with a Becton Dickinson FACSCalibur instrument (Ex = 488 nm; Em = 530 nm). Cells that were positive for Annexin V-FITC alone (early apoptosis) and Annexin V-FITC and PI (late apoptosis) were counted. The apoptotic index was calculated against the untreated control cells.

[2] = tested on: Mia PaCa-2 cells; assay: Annexin V apoptosis assay/flow cytometry, Mia PaCa-2; type: cell-based, human; settings: Mia PaCa-2, 1 µM, 48 h
Experimental: as §1, §2

[3] = tested on: Panc-1 cells; assay: MTT cell survival assay, Panc-1; type: cell-based; settings: Homo sapiens, Panc-1, 72 h, read-out: Cytotoxicity IC50
Experimental: We evaluated the effects of FBA-TPQ on the survival of several human pancreatic cancer cell lines, including HPAC (p53^+/+), Panc-1(p53^+/−), and Mia PaCa-2(p53^+/−), as well as normal IRM90 fetal fibroblast cells (Figure 2a). Cells were exposed to various concentrations of the test compound (0–10 µM) for 72 h, and cell survival rates were determined by the MTT assay, using a procedure reported previously. FBA-TPQ exerted potent effects against the test cancer cell lines, leading to significant decreases in cell viability.
Human pancreatic cancer cells were obtained from the American Type Culture Collection (Rockville, MD). All cell culture media contained 10% FBS and 1% penicillin/streptomycin. […]
The effect of the test compound on human pancreatic cancer cell viability, expressed as the percentage of cell survival, was determined using the MTT (3-(4,5-dimethylthiazol-2-yl)-2,5-diphenyl tetrazolium bromide) assay. […] The absorbance at 570 nm was recorded using an OPTImax microplate reader (Molecular Devices; Sunnyvale, CA, USA). The cell survival percentages were calculated by dividing the mean OD of compound-containing wells by that of DMSO-containing control wells. […]

O=C1C(NCc2ccc(F)cc2)=CC2=NCCc3c[nH]c1c32 [FBA-TPQ, 7-(4-fluorobenzylamino)-1,3,4,8-tetrahydropyrrolo[4,3,2-de]quinolin-8(1H)-one]
increase of apoptotic index vs control cells [1]: two-fold | increase in apoptosis vs control cells [2]: three-fold | IC50 [3]: 110 ± 10 nM
